Source: PMC4741889, “Ligand-based chemoinformatic discovery of a novel small molecule inhibitor targeting CDC25 dual specificity phosphatases and displaying in vitro efficacy against melanoma cells” (Oncotarget, 2015)

Key:
[1] = tested on: Bcl-2 and Bax protein levels; test: Western blotting of Bcl-2 and Bax protein levels in SAN cells; format: cell-based, human; conditions: 100 μM, 8 or 16 h
Method: Mitochondria represent the primary source of ROS, as well the target of ROS action, and therefore, compound 7 could affect their functionality in melanoma cells. […] Proteins belonging to the B-cell lymphoma-2 (Bcl-2) family are involved in the modulation of the mitochondrial functionality. Therefore, we have evaluated the levels of the anti-apoptotic protein Bcl-2, as well as that of the pro-apoptotic Bcl-2-associated X protein (Bax), after incubation with 7 (Figure 10B). […] To further investigate the occurrence of a mitochondrial-mediated apoptosis induced by 7, the caspase-9 activity was assayed. […]
A2058 cells were seeded into 6-well-plates (3 × 10^5 cells/plate) for 24 h at 37°C and then treated at different times with 100 μM compound 7 or 0.5% DMSO. […] The protein concentration was determined by the method of Bradford, using bovine serum albumin (BSA) as standard. […] Membranes were then analysed by an enhanced chemiluminescence reaction, using Super Signal West Pico kit (Pierce) according to manufacturer's instruction; signals were visualized by autoradiography.
Supplementary Figure S6: Effect of compound 7 on some apoptotic mitochondrial markers in SAN cells. […] Total protein extracts from SAN cells, incubated with 0.5% DMSO or 100 μM compound 7 for 8 or 16 h,were analyzed by Western blotting. […]

A2058 cells [2] = test: Mitochondrial membrane potential (R123), A2058 cells; format: cell-based, human; conditions: A2058, 100 μM, 24 h up to 72 h
Method: Mitochondria represent the primary source of ROS, as well the target of ROS action, and therefore, compound 7 could affect their functionality in melanoma cells. […] Proteins belonging to the B-cell lymphoma-2 (Bcl-2) family are involved in the modulation of the mitochondrial functionality. Therefore, we have evaluated the levels of the anti-apoptotic protein Bcl-2, as well as that of the pro-apoptotic Bcl-2-associated X protein (Bax), after incubation with 7 (Figure 10B). […] To further investigate the occurrence of a mitochondrial-mediated apoptosis induced by 7, the caspase-9 activity was assayed. […] The effect of compound 7 was investigated also in SAN cells and the overall results were similar to those observed in A2058 (Supplementary Figure S6).
Mitochondrial membrane potential was evaluated by measuring the incorporation of the fluorescent probe R123, essentially as previously described. Briefly, cells were seeded into 6-well-plates (3 × 10^5 cells/well) for 24 h at 37°C, and then incubated at 37°C for 1 h in the presence of 5 μM R123, washed twice with PBS, and placed in medium containing 100 μM compound 7 or 0.5% DMSO. […] The fluorescence of cell-associated R123 was detected in the above-mentioned fluorescence spectrophotometer, using excitation and emission wavelengths of 490 and 520 nm, respectively; both excitation and emission slits were set at 10 nm.

CDC25C protein levels = test: Western blotting of CDC25C protein levels in SAN cells; format: cell-based, human; conditions: 100 μM, 1, 2 or 4 h
CDC25B = molecular target: T1, CDC25B (Homo sapiens, UniProt P30305); test: Ki from OMFP hydrolysis kinetics (Lineweaver-Burk), CDC25B; format: biochemical; conditions: 10 nM CDC25B, 1–25 μM OMFP; mean ± S.E.
T1 construct: Recombinant forms of the catalytic domains of CDC25A, -B and -C were obtained through the vectors pET28a-CDC25A-cd, pET28a-CDC25B-cd and pET28a-CDC25C-cd; made in house
T1 sequence (P30305 431-538 limits assumed): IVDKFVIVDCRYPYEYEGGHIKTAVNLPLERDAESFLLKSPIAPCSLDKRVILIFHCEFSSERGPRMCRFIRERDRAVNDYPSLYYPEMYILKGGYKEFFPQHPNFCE
Method: To measure the inhibition constant (Ki) of the recombinant forms of CDC25A, -B and -C towards the various inhibitors, the affinity of the different forms of CDC25 towards OMFP was measured either in the absence or in the presence of fixed concentrations of the various inhibitors. The reaction mixture contained 20 nM CDC25A, or 10 nM CDC25B, or 40 nM CDC25C, and different concentrations of the various inhibitors in 500 μL final volume of 20 mM Tris-HCl, pH 7.8, 1 mM DTT. DMSO was used as vehicle control. The reaction started by the addition of 1–25 μM OMFP, and the rate of OMFP hydrolysis was measured as indicated before. The corresponding Lineweaver-Burk plots allowed the calculation of the KM for OMFP and of the Vmax of OMFP hydrolysis, expressed as a.u./minmax. […] The Ki values were obtained from the decrease of a.u./minmax in the presence of the inhibitor, according to the equation a.u./mimmax’ = a.u./mimmax/{1 + ([I]/Ki)}, where a.u./mimmax’ represents the Vmax measured in the presence of the concentration [I] of the inhibitor. The Ki values were obtained from at least three independent experiments and reported as mean ± S.E.

A2058 cells [3] = test: MTT cell growth rate, A2058 melanoma cells; format: cell-based, human; conditions: for cell growth rate: A2058, 100 μM
Method: The human melanoma cell line A2058, kindly provided by CEINGE (Naples, Italy), and SAN cells were derived from lymph nodal metastases and grown in DMEM and RPMI 1640, respectively, supplemented with 10% FBS, 2 mM L-glutamine, 100 IU/mL penicillin G, and 100 μg/mL streptomycin in humidified incubator at 37°C under 5% CO2 atmosphere. All cells were split and seeded every three days and used during the exponential phase of growth. Cell treatments were always carried after 24 h from plating.
The MTT assay was used to detect cell proliferation essentially as previously described. Briefly, A2058 and SAN cells were plated in 96-well microtiter plates (100 μL/well) at 4000 and 6000 cells/well, respectively. After 24-h seeding, cells were treated with the selected compounds added at 25, 50 or 100 μM concentration, or with 0.5% (v/v) DMSO as a vehicle control. After 24-h, 48-h or 72-h treatment, and upon the addition of 10 μL of MTT solution in the dark, the plate was incubated for 3 h at 37°C under CO2 atmosphere. After medium aspiration and solubilization of formazan crystals, absorbance was measured at 570 nm, using an ELISA plate reader (Bio-Rad, Milano, Italy).

Compound: O=C(O)C1CCCCC1c1c2ccc(=O)cc-2oc2cc(O)ccc12 (centres unmarked) [Compound 7, 2-(6-hydroxy-3-oxo-3H-xanthen-9-yl)cyclohexanecarboxylic acid]
- Bcl-2/Bax ratio [1]: significantly decreased
- Bcl-2 and Bax protein levels [1]: both levels of Bcl-2 and Bax were reduced
- mitochondrial membrane potential (R123 fluorescence) (A2058 cells [2]): reduction of the mitochondrial membrane potential
- CDC25C protein levels (CDC25C protein levels): earlier decrease of CDC25C protein levels
- Ki (CDC25B): 780 ± 30 nM
- cell growth rate (A2058 cells [3]; 48 h, MTT): significant reduction of the cell growth rate
- cell growth rate (A2058 cells [3]; 72 h, MTT (data not shown)): significant reduction of cell growth rate
- minimum concentration of inhibitor that caused an evident cytotoxic activity (A2058 cells [3]; A2058, 25, 50 or 100 μM tested, 48 h (Supplementary Figure S2)): 100 µM
